Results: patent US20260048155A1, “BIOCOMPATIBLE PARAHYDROGEN HYPERPOLARIZED SOLUTIONS BY PRECIPITATION AND RE-DISSOLUTION” (North Carolina State University, priority 2022, published 2026)

What was measured:
[1] = Lifetime (13C T1) of polarization in precipitated and aqueous samples; type: physicochemical; conditions: for T1 in the aqueous phase after Re-D SABRE: N=2
Procedure: To investigate the impact of precipitate relaxation in variable magnetic fields during the dissolution process, the Re-D SABRE experiment was repeated, omitting the addition of water after precipitation (i.e., the decay of ^13C HP signal in the dissolved phase of the precipitated samples was measured). […] For (iii), P13C was still much lower compared to the sample that rested at the 1.4 T magnet (setup iv), i.e., P13C=0.08±0.02% and P13C=3.4±0.9%, respectively—this signal is entirely derived from the remaining dissolved pyruvate in solution (2.3±0.6 mM in the 500 μL sample of EtAc and CH3OH, FIG. 17) not from the precipitated micro-crystalline phase. […] This observation is important because it means the Re-D SABRE process can be successfully performed at storage fields as low as 0.3 T. The rapid ^13C T1 of HP [1-^13C]pyruvate in the EtAc fraction at Earth's field, estimated to be <1.3 s, may be caused by the high catalyst: substrate ratio in the EtAc.
HP signals from the sample before or after re-dissolution were measured as a function of an additional delay td (ranging from 0 to 23 s; t=tprec+td), during which P13C was allowed to decay. At the end of td, the signal was detected either immediately (green circles, FIG. 6D, sampling the decay rate of the residual dissolved-phase pyruvate) or after the dissolution with D2O (squares, FIG. 6D, sampling the decay rate of the entire pyruvate (precipitated and dissolved) pool). Assuming a mono-exponential decay, the apparent ^13C T1 was 7.0±0.4 s or 5.3±0.2 s, respectively. […] In sharp contrast, T1 values in the aqueous phase measured after the Re-D SABRE process were 41.6±0.3 s in H2O and 102±1.3 s in D2O, FIG. 6E, using a series of pulse-detect NMR experiments with low flip angle of 9° (N=2).

[2] = Re-dissolution (Re-D) SABRE: precipitation with ethyl acetate, re-dissolution in water, phase separation at different magnetic fields; type: physicochemical
Procedure: To investigate the precipitation and re-dissolution of HP [1-^13C]pyruvate, a phase separation approach was applied, FIGS. 5A-5B. To this end, the fact that water and EtAc are immiscible was exploited to modify the setup and procedure accordingly. In this approach, the precipitation was performed in the same NMR tube where hyperpolarization took place. 400 μL EtAc were added quickly to the sample consisting of 100 μL of 30 mM HP [1-^13C]pyruvate, right after removing this sample from the 0.4 μT field and releasing the pressure (≈3-4 s). To mix the solution after EtAc addition, further p-H2 bubbling was used at a low flow rate (˜5-10 scc/m, ambient pressure), FIGS. 5A-5B. For re-dissolution, 300 μL water were added directly to the NMR tube with the precipitate-containing solution, and again, gas flow was used to mix and dissolve the pyruvate microcrystals. After mixing the solutions, most of the aqueous phase rapidly separated from the organic phase (≈1 s). Typical precipitation time was tprec≈2 s and water addition time twater≈6 s, where twater consisted of 1 s to add water, plus 4 s to bubble gas, and 1 s to settle the solution, FIGS. 5A-5B (see FIG. 17 for more information). […] Using this protocol, the obtained two-phase samples visibly contained a major fraction of the catalyst in the organic phase (which remained yellowish and turned reddish after exposure to atmosphere, FIG. 15), whereas a clear aqueous solution of total volume of ≈335±10 μL was obtained (as detailed below approximately half of the CH3OH remained in the aqueous phase), FIGS. 14A-14B. The total volumes of the investigated mixtures containing the precipitate were approximately 500 μL (3.9 cm fill height in the NMR tube), and after the addition of water the total fluid volume was ≈800 μL (≈6 cm fill height). During the phase mixing, parts of the sample were lifted by approximately 5 cm by the ascending p-H2 gas bubbles. The sample height in the NMR tube was the decisive factor affecting the choice of solvent volumes to minimize the mixtures from leaving the 1.4 T field of the benchtop NMR spectrometer (approximately 10 cm along the sample tube) as much as possible. […] These limitations are clear shortcomings of the current experimental design and can be remedied in the future with purpose-built hyperpolarization equipment.
This separation approach was investigated at 4 different magnetic fields: (i) Earth's field; (ii) 10 mT; (iii) 0.3 T; and (iv) 1.4 T, FIGS. 6A-6B. More details on the experiment setups are reported in the SI. Re-D SABRE was performed at (i)-(iv), and the samples were then rapidly transferred to the benchtop 1.4 T NMR, such that the aqueous phase was approximately centered in the radiofrequency coil. In case (iv), for which no transfer was needed, a ≈5-s delay was added to the end of the protocol for consistency with the time needed to transfer the samples in (i-iii).
The detection and quantification of hyperpolarization took place at 1.4 T in all cases.
A more rigorous phase mixing protocol was tested, where the bubbling tube was moved up and down rapidly three times for phase mixing during the twater≈6 s mixing time. […] Considering the final volume of the aqueous phase of 335±10 μL and the measured pyruvate concentration of 5.8±0.8 mM (in the diluted Re-D SABRE sample), the detected ^13C signals corresponded to a nuclear polarization of P13C=9±1% or 8±1%, i.e., ε13C of ≈75,000 at 1.4 T, respectively, N=2 samples, FIGS. 7A-8B. […]

SMILES: CC(=O)[13C](=O)O [[1-^13C]pyruvate]
- T1 in the aqueous phase after Re-D SABRE ([1]; D2O, 1.4 T): 102 ± 1.3 s
- 13C T1 in the EtAc fraction ([1]; Earth's field, estimated): < 1.3 s
- T1 in the aqueous phase after Re-D SABRE ([1]; H2O, 1.4 T): 41.6 ± 0.3 s
- apparent 13C T1, entire pyruvate (precipitated and dissolved) pool ([1]; precipitated sample, 1.4 T, detected after dissolution with D2O): 5.3 ± 0.2 s
- apparent 13C T1, residual dissolved-phase pyruvate ([1]; precipitated sample, 1.4 T, detected immediately, mono-exponential): 7.0 ± 0.4 s
- ε13C after Re-D SABRE ([2]; aqueous phase, at 1.4 T): ≈ 75,000
- P13C after Re-D SABRE ([2]; precipitation and re-dissolution at 0.3 T, N=2, aqueous phase): 4.0±0.8%
- P13C after Re-D SABRE ([2]; precipitation and re-dissolution at 1.4 T, N=3, aqueous phase): 3.6±0.6%
- P13C after Re-D SABRE ([2]; precipitation and re-dissolution at 10 mT, aqueous phase, detected at 1.4 T): 0.05±0.02%
- HP 13C signal after Re-D SABRE ([2]; precipitation and re-dissolution at Earth's field, detected at 1.4 T): No HP ^13C signal was observed
